Values quoted from earlier work as cited in PMC8513935.

Experiments:
[1] = log P octanol/water from commercial databases, averaged (the ESI); settings: Octanol (wet), 25 C
[2] = experimental, compiled by the authors from the literature (the ESI cites the sources)
[3] = derived by the authors as gas->solvent minus gas->water (a hypothetical dry solvent; the ESI), not a two-phase measurement

## OC1CCCCC1
[1]
  log K of transfer, water to solvent: 1.23 log10 K
[2]; Chloroform, 25 C
  log K of transfer, gas to solvent: 5.13 log10 K
[2]; Decan-1-ol, 25 C
  log K of transfer, gas to solvent: 5.48 log10 K
[2]; Hexadecane, 25 C
  log K of transfer, gas to solvent: 3.76 log10 K
[2]; Octan-1-ol, 25 C
  log K of transfer, gas to solvent: 5.18 log10 K
[2]; Propanone, 25 C
  log K of transfer, gas to solvent: 5.09 log10 K
[2]; Water, 25 C
  log K of transfer, gas to solvent: 4.01 log10 K
[3]; Acetone, 25 C
  log K of transfer, water to solvent: 1.08 log10 K
[3]; Chloroform, 25 C
  log K of transfer, water to solvent: 1.12 log10 K
[3]; Decan-1-ol, 25 C
  log K of transfer, water to solvent: 1.48 log10 K
[3]; Hexadecane, 25 C
  log K of transfer, water to solvent: -0.252 log10 K
[3]; Octan-1-ol(dry), 25 C
  log K of transfer, water to solvent: 1.17 log10 K

## CCC(=O)CC
[1]
  log K of transfer, water to solvent: 0.82 log10 K
[2]; Cyclohexane, 25 C
  log K of transfer, gas to solvent: 3.15 log10 K
[2]; Hexadecane, 25 C
  log K of transfer, gas to solvent: 2.81 log10 K
[2]; Octan-1-ol, 25 C
  log K of transfer, gas to solvent: 3.2 log10 K
[2]; Water, 25 C
  log K of transfer, gas to solvent: 2.5 log10 K
[3]; Cyclohexane, 25 C
  log K of transfer, water to solvent: 0.65 log10 K
[3]; Hexadecane, 25 C
  log K of transfer, water to solvent: 0.311 log10 K
[3]; Octan-1-ol(dry), 25 C
  log K of transfer, water to solvent: 0.7 log10 K

## c1ccc2c(c1)ccc1ccccc12
[1]
  log K of transfer, water to solvent: 4.49 log10 K
[2]; 2-Methylpropan-1-ol, 25 C
  log K of transfer, gas to solvent: 7.01 log10 K
[2]; 2-Methylpropan-2-ol, 25 C
  log K of transfer, gas to solvent: 7 log10 K
[2]; 3-Methylbutan-1-ol, 25 C
  log K of transfer, gas to solvent: 7.13 log10 K
[2]; Acetonitrile, 25 C
  log K of transfer, gas to solvent: 7.73 log10 K
[2]; Butan-1-ol, 25 C
  log K of transfer, gas to solvent: 7.25 log10 K
[2]; Butan-2-ol, 25 C
  log K of transfer, gas to solvent: 7.07 log10 K
[2]; Butanone, 25 C
  log K of transfer, gas to solvent: 8.27 log10 K
[2]; Butyronitrile, 25 C
  log K of transfer, gas to solvent: 8.19 log10 K
[2]; CCl4, 25 C
  log K of transfer, gas to solvent: 8.05 log10 K
[2]; Chloroform, 25 C
  log K of transfer, gas to solvent: 7.86 log10 K
[2]; Cyclohexane, 25 C
  log K of transfer, gas to solvent: 7.41 log10 K
[2]; Cyclohexanone, 25 C
  log K of transfer, gas to solvent: 8.33 log10 K
[2]; Di-n-butyl ether, 25 C
  log K of transfer, gas to solvent: 7.72 log10 K
[2]; Ethanol, 25 C
  log K of transfer, gas to solvent: 7.36 log10 K
[2]; Heptan-1-ol, 25 C
  log K of transfer, gas to solvent: 7.41 log10 K
[2]; Hexadecane, 25 C
  log K of transfer, gas to solvent: 7.63 log10 K
[2]; Hexane, 25 C
  log K of transfer, gas to solvent: 7.35 log10 K
[2]; Methanol, 25 C
  log K of transfer, gas to solvent: 7.24 log10 K
[2]; Octan-1-ol, 25 C
  log K of transfer, gas to solvent: 7.52 log10 K
[2]; Pentan-1-ol, 25 C
  log K of transfer, gas to solvent: 7.33 log10 K
[2]; Propan-1-ol, 25 C
  log K of transfer, gas to solvent: 7.3 log10 K
[2]; Propan-2-ol, 25 C
  log K of transfer, gas to solvent: 7.07 log10 K
[2]; Propanone, 25 C
  log K of transfer, gas to solvent: 8.26 log10 K
[2]; Propionitrile, 25 C
  log K of transfer, gas to solvent: 8.14 log10 K
[2]; Tetrahydrofuran, 25 C
  log K of transfer, gas to solvent: 8.42 log10 K
[2]; Water, 25 C
  log K of transfer, gas to solvent: 2.8 log10 K
[3]; 2-Methylpropan-1-ol, 25 C
  log K of transfer, water to solvent: 4.21 log10 K
[3]; 2-Methylpropan-2-ol, 25 C
  log K of transfer, water to solvent: 4.2 log10 K
[3]; 3-Methylbutan-1-ol, 25 C
  log K of transfer, water to solvent: 4.33 log10 K
[3]; Acetone, 25 C
  log K of transfer, water to solvent: 5.46 log10 K
[3]; Acetonitrile, 25 C
  log K of transfer, water to solvent: 4.93 log10 K
[3]; Butan-1-ol, 25 C
  log K of transfer, water to solvent: 4.45 log10 K
[3]; Butan-2-ol, 25 C
  log K of transfer, water to solvent: 4.27 log10 K
[3]; Butanone, 25 C
  log K of transfer, water to solvent: 5.47 log10 K
[3]; Butyronitrile, 25 C
  log K of transfer, water to solvent: 5.39 log10 K
[3]; CCl4, 25 C
  log K of transfer, water to solvent: 5.25 log10 K
[3]; Chloroform, 25 C
  log K of transfer, water to solvent: 5.06 log10 K
[3]; Cyclohexane, 25 C
  log K of transfer, water to solvent: 4.61 log10 K
[3]; Cyclohexanone, 25 C
  log K of transfer, water to solvent: 5.53 log10 K
[3]; Di-n-butyl ether, 25 C
  log K of transfer, water to solvent: 4.92 log10 K
[3]; Ethanol, 25 C
  log K of transfer, water to solvent: 4.56 log10 K
[3]; Heptan-1-ol, 25 C
  log K of transfer, water to solvent: 4.61 log10 K
[3]; Hexadecane, 25 C
  log K of transfer, water to solvent: 4.83 log10 K
[3]; Hexane, 25 C
  log K of transfer, water to solvent: 4.55 log10 K
[3]; Methanol, 25 C
  log K of transfer, water to solvent: 4.44 log10 K
[3]; Octan-1-ol(dry), 25 C
  log K of transfer, water to solvent: 4.72 log10 K
[3]; Pentan-1-ol, 25 C
  log K of transfer, water to solvent: 4.53 log10 K
[3]; Propan-1-ol, 25 C
  log K of transfer, water to solvent: 4.5 log10 K
[3]; Propan-2-ol, 25 C
  log K of transfer, water to solvent: 4.27 log10 K
[3]; Propionitrile, 25 C
  log K of transfer, water to solvent: 5.34 log10 K
[3]; Tetrahydrofuran, 25 C
  log K of transfer, water to solvent: 5.62 log10 K

## C1CCOCC1
[1]
  log K of transfer, water to solvent: 0.795 log10 K
[2]; Chloroform, 25 C
  log K of transfer, gas to solvent: 4.28 log10 K
[2]; Cyclohexane, 25 C
  log K of transfer, gas to solvent: 3.23 log10 K
[2]; Hexadecane, 25 C
  log K of transfer, gas to solvent: 3.02 log10 K
[2]; Octan-1-ol, 25 C
  log K of transfer, gas to solvent: 3.22 log10 K
[2]; Water, 25 C
  log K of transfer, gas to solvent: 2.31 log10 K
[3]; Chloroform, 25 C
  log K of transfer, water to solvent: 1.97 log10 K
[3]; Cyclohexane, 25 C
  log K of transfer, water to solvent: 0.92 log10 K
[3]; Hexadecane, 25 C
  log K of transfer, water to solvent: 0.707 log10 K
[3]; Octan-1-ol(dry), 25 C
  log K of transfer, water to solvent: 0.91 log10 K
